The values that follow come from patent US20240299356A1, “DEVELOPMENT OF PRMT-TARGETING THERAPY TO ENHANCE EGFR-TARGETING DRUG EFFICACY IN NSCLC” (The Regents of the University of California, priority 2021, published 2024).

Common to all, as to type: cell-based
Test [1] has as its system STAT1. Nature of the test: STAT1 protein expression (Western blot). How it is done:
(§1) FIG. 2A is a line graph showing that knockout of STAT1 by CRISPR blocked IFNγ-induced change of drug-tolerant subpopulation size. […] FIG. 2D is a line graph showing homozygous knockout of STAT1 by CRISPR (tolerance model: PC9 treated with 2.5 μM erlotinib). […] Relative intensities were measured from by mass spectrometry experiments. FIG. 2H is a diagram of STAT1-mediated drug tolerance and type I PRMT vulnerability to eliminate drug tolerance.
FIG. 5C is a line graph showing that STAT1 modulated cancer drug tolerance, and knockdown of STAT1 by siRNA blocked IFNγ-induced change of drug-tolerant subpopulation size. […] FIG. 5E is a bar graph showing that cancer drug treatment (EGFR drugs and other cytotoxic stressors) enhanced STAT1 expression across multiple cell lines. […] Tolerance model for FIG. 5G: PC9 treated with 2.5 μM erlotinib. FIG. 5H presents exemplary data showing differential gene expression in erlotinib-tolerant PC9 cells comparing to parental cells. The top panel of FIG. 5H is a volcano plot in which IRDS genes are shown in black. The bottom panel of FIG. 5H is a line graph showing the accumulative distribution of adjusted p-values of IRDS genes (gray) versus all genes excluding IRDS genes (black). FIG. 5I is a line graph showing the knockdown of STAT1 by siRNA. FIG. 5J is a line graph showing the homozygous knockout of STAT1 by CRISPR. Tolerance model for FIGS. 5I and 5J: PC9 treated with 2.5 μM erlotinib. […] PC9 cells were pretreated with MS023 for one day, followed by co-treatment of erlotinib, and perturbations of protein synthesis or degradation for 16 hours. Cycloheximide (CHX): protein synthesis inhibitor. Bortezomib (Bort): proteasome inhibitor. Ammonium chloride (NH4Cl)): lysosomal function inhibitor. […] FIG. 5P is a bar graph showing type I PRMTs methylate PABP2 at multiple arginine residues. Relative intensities were measured from by mass spectrometry experiments.
What is the connection between type I PRMTs and IFNγ signaling-modulated drug tolerance? […] Previous work in other systems identified STAT1 or its regulator PIAS1 as direct substrates of type I PRMTs^27, though we could not find evidence for their arginine methylation in our system (data not shown).
Background: A western blot detects proteins with antibodies after separation by electrophoresis.

Test [2] has as its system PC9. Nature of the test: Emergence of drug-tolerant persisters, two-month co-treatment with erlotinib. As to conditions: IFNγ stimulation, PC9, 2.5 μM erlotinib (FIG. 1F). From the text: (§2) FIGS. 1A-1F present exemplary data showing that Type I PRMT inhibition reduced IFNγ signaling-modulated drug tolerance. FIG. 1A present a three-step approach aimed at investigating drug tolerance. FIG. 1B is a line graph showing PC9 cell viabilities under six-day treatment of various doses of erlotinib in the context of IFNγ. […] FIG. 1E is a line graph showing that inhibition of type I PRMTs by MS023 reduced cancer drug tolerance specifically in the IFNγ/STAT1 activation context (normalized to DMSO controls in corresponding IFNγ contexts). Tolerance model for FIG. 1E: PC9 treated with 2.5 μM erlotinib for six days. […] Tolerance model: PC9 treated with 2.5 μM erlotinib.
Third, we searched for perturbations that reduce IFNγ-stimulated drug tolerance within a collection of compounds of known biological functions and targets. […] Thus, type I PRMT inhibition is a vulnerability of IFNγ signaling-stimulated drug tolerance.

The test system of test [3] is PD-L1. Briefly: PD-L1 expression in MGH119. As to conditions: lung cancer cell MGH119 (FIG. 12A).
Test [4] concerns lung cancer cell lines. Briefly: Drug tolerance in lung cancer cell models. As for the experimental part: FIGS. 3A-3D present exemplary data showing that Type I PRMT inhibition enhanced cancer drug efficacy. […] FIGS. 3B-3D present data showing the correlation between endogenous STAT1 expression levels and the efficacy of type I PRMT inhibition. […] Gray dots indicate cell lines that were tested for the efficacies of type I PRMT inhibition (by MS023).
(§3) Can type I PRMT inhibition provide a general strategy for reducing drug tolerance and enhance efficacies of SOC drugs? STAT1 signaling can be activated by various sources in tumors, including interferon (IFN)-producing immune cells in the tumor microenvironment, endogenous nucleic acids, and cancer therapeutics (FIG. 2H)^31. […] We also observed efficacy of MS023 with gemcitabine in various pancreatic cancer cell lines (FIG. 6A).

For test [5], the system named is pancreatic cancer cell lines. Nature of the test: Drug tolerance in gemcitabine-treated pancreatic cancer cell lines. The settings on record: FIG. 6A.
Source text: FIGS. 6A-6E present exemplary data showing that Type I PRMT inhibition enhances cancer drug efficacy.
as §3

Test [6] has as its system PC9 STAT1 knockdown / homozygous knockout cells. Briefly: Drug tolerance assay in PC9 with STAT1 knockdown or knockout. The settings on record: PC9 treated with 2.5 μM erlotinib. As for the experimental part: as §1
(§4) FIG. 5C is a line graph showing that STAT1 modulated cancer drug tolerance, and knockdown of STAT1 by siRNA blocked IFNγ-induced change of drug-tolerant subpopulation size. […] FIG. 5E is a bar graph showing that cancer drug treatment (EGFR drugs and other cytotoxic stressors) enhanced STAT1 expression across multiple cell lines. […] Tolerance model for FIG. 5G: PC9 treated with 2.5 μM erlotinib. FIG. 5H presents exemplary data showing differential gene expression in erlotinib-tolerant PC9 cells comparing to parental cells. The top panel of FIG. 5H is a volcano plot in which IRDS genes are shown in black. The bottom panel of FIG. 5H is a line graph showing the accumulative distribution of adjusted p-values of IRDS genes (gray) versus all genes excluding IRDS genes (black). FIG. 5I is a line graph showing the knockdown of STAT1 by siRNA. […] Relative intensities were measured from by mass spectrometry experiments. […]

For test [7], the system named is STAT1 mRNA. Nature of the test: STAT1 mRNA level. As to conditions: FIG. 5M. How it is done:
FIG. 5C is a line graph showing that STAT1 modulated cancer drug tolerance, and knockdown of STAT1 by siRNA blocked IFNγ-induced change of drug-tolerant subpopulation size. […] FIG. 5E is a bar graph showing that cancer drug treatment (EGFR drugs and other cytotoxic stressors) enhanced STAT1 expression across multiple cell lines. […] Tolerance model for FIG. 5G: PC9 treated with 2.5 μM erlotinib. FIG. 5H presents exemplary data showing differential gene expression in erlotinib-tolerant PC9 cells comparing to parental cells. The top panel of FIG. 5H is a volcano plot in which IRDS genes are shown in black. The bottom panel of FIG. 5H is a line graph showing the accumulative distribution of adjusted p-values of IRDS genes (gray) versus all genes excluding IRDS genes (black). FIG. 5I is a line graph showing the knockdown of STAT1 by siRNA. FIG. 5J is a line graph showing the homozygous knockout of STAT1 by CRISPR. Tolerance model for FIGS. 5I and 5J: PC9 treated with 2.5 μM erlotinib. […] PC9 cells were pretreated with MS023 for one day, followed by co-treatment of erlotinib, and perturbations of protein synthesis or degradation for 16 hours. Cycloheximide (CHX): protein synthesis inhibitor. Bortezomib (Bort): proteasome inhibitor. Ammonium chloride (NH4Cl)): lysosomal function inhibitor. […] Relative intensities were measured from by mass spectrometry experiments. […]

For test [8], the system named is PABP2. Briefly: PABP2 arginine methylation by mass spectrometry. The settings on record: mass spectrometry (FIGS. 2G, 5P, 5Q). As for the experimental part:
as §1, §4

Test [9] relates to solid tumors with wild type splicing factors (e.g. SRSF2, SF3B1, U2AF1). Nature of the test: Proliferation of solid tumors with wild type splicing factors. As to conditions: FIG. 9.
The test system of test [10] is PC9. Briefly: Drug tolerance assay: surviving fraction of PC9 cells under continuous erlotinib.
Source text: as §2
FIGS. 4A-4F present exemplary data showing that Type I PRMT inhibition reduces IFNγ signaling-modulated drug tolerance. FIG. 4A is a line graph showing the pro-survival effects of IFNγ in a variety of cell types with the cytotoxic inducers. Six-day tolerance assay in lung cancer cells was performed under 2.5 μM erlotinib or 50 μM carboplatin. FIG. 4B is a line graph showing PC9 cells co-treated with IFNγ and cytotoxic stressors (EGFR inhibitor Gefitinib, PARP inhibitor olaparib, death ligand TRAIL, procaspase-3 activator PAC-1), and cell viabilities were measured by Cell TiterGlo after six days. FIG. 4C is a bar-graph showing PRMT1 knockdown efficiency measured by qPCR after two days of siRNA transfection. FIG. 4D is a line graph showing that inhibition of type I PRMTs by MS023 reduced cancer drug tolerance specifically in the IFNγ/STAT1 activation context (normalized to DMSO control in (−) IFNγ context). Tolerance model for FIG. 4D: PC9 treated with 2.5 μM erlotinib for six days. FIG. 4E is a line graph showing that inhibition of type I PRMTs by GSK3368715 reduced cancer drug tolerance specifically in the IFNγ/STAT1 activation context (normalized to DMSO controls in corresponding IFNγ contexts). FIG. 4F is a line graph line graphs showing that inhibition of type I PRMTs by GSK3368715 reduced cancer drug tolerance specifically in the IFNγ/STAT1 activation context (normalized to DMSO control in (−) IFNγ context). Tolerance model for FIGS. 4E and 4F: PC9 treated with 2.5 μM erlotinib for six days.
To investigate drug tolerance, we undertook a three-step approach (FIG. 1A). First, we established reproducible assays to monitor small subpopulations of cancer cells that survive sustained SOC drug treatment. We initially selected the well-established drug-tolerance model provided by the EGFR-mutant lung cancer cell line PC9 and EGFR inhibitor erlotinib^1,2,6. The effect of perturbations to drug tolerance was assessed by quantifying changes to the fraction of the small subpopulation of surviving (drug-tolerant) cells after approximately one week of continuous drug treatment.

In test [11] the test system is PD-L1. Briefly: PD-L1 expression in MIAPACA2. As to conditions: pancreatic cancer cell MIAPACA2 (FIG. 12B).
The test system of test [12] is AKT, ERK and STAT3 pathway. Briefly: EGFR bypass signaling (AKT, ERK and STAT3 pathway). The settings on record: FIG. 5A.

On to `C#Cc1cccc(Nc2ncnc3cc(OCCOC)c(OCCOC)cc23)c1` [erlotinib], for which the “total STAT1 as opposed to P-STAT1” value in test [1] (combined with IFNγ, PC9 cells (FIG. 5D)) is given as “synergizes with IFNγ to increase total STAT1”.
For `CC(C)Oc1ccc(-c2c[nH]cc2CN(C)CCN)cc1` [MS023], the “expansion of drug-tolerant cells (persisters)” value in test [2] is reported as “durably reduced the expansion of drug-tolerant cells”. The “expression of immune checkpoint protein PD-L1” value in test [3] and in test [11] was “reduced the expression” each time. The “mechanism of the reduction of STAT1 expression” value in test [1] (PC9 pretreated one day, then erlotinib plus cycloheximide, bortezomib or NH4Cl for 16 hours (FIG. 5N)) is “alteration in protein synthesis”. In addition, in test [1] (independent of IFNγ or erlotinib, multiple cancer cell lines (FIGS. 2E, 5K, 5L)), the “total STAT1 protein level” value is “downregulated total STAT1 protein level”. In addition, in test [4] (EGFR mutant cell lines with T790M resistance mutation, IFNγ stimulation (FIG. 3A middle)), the “drug tolerance in osimertinib-treated lung cancers” value is recorded as “reduced drug tolerance”. The “drug tolerance in carboplatin-treated lung cancers” value in test [4] (EGFR wild type cell lines, IFNγ stimulation (FIG. 3A bottom)) is “reduced drug tolerance”. Further, the “IC50 on reducing drug tolerance” value in test [4] (lung (erlotinib, osimertinib, carboplatin) and pancreatic (gemcitabine) cancer cell models, IFNγ stimulation) is listed as “sub- to low-micromolar range”. Moreover, the “drug tolerance in erlotinib-treated lung cancers” value in test [4] (multiple EGFR mutant cell lines, IFNγ stimulation (FIG. 3A top)) is “reduced drug tolerance”. Besides, the “drug tolerance in gemcitabine-treated pancreatic cancers” value in test [5] is “reduced drug tolerance”. For the same molecule, in [6] (CRISPR STAT1 knockout (FIGS. 2D, 5J)), the “efficacy on drug tolerance in STAT1 homozygous knockout cells” value is reported as “no efficacy”. For the same molecule, the “efficacy on drug tolerance after STAT1 knockdown” value in test [6] (STAT1 siRNA (FIG. 5I)) is “dramatically compromised”. Further, the “STAT1 mRNA” value in test [7] is listed as “did not reduce STAT1 mRNA”. In test [8], the “dimethylation of PABP2 arginine residues” value is “reduced the detected dimethylation of PABP2”. Also, the proliferation entry in test [9] is recorded as “reduced the proliferation”. Moreover, the “effect on reducing drug tolerance, dependence on IFNγ” value in test [10] (PC9 treated with 2.5 μM erlotinib for six days, with or without IFNγ (FIGS. 1E, 4D-4F)) is on record as “only observed in the presence of IFNγ stimulation”. Also, in test [10] (across a wide range of IFNγ concentrations (FIG. 1C)), the “drug tolerance in the PC9/erlotinib model system” value is “reduced drug tolerance”.

B1: IFNγ: dimerized soluble cytokine, the only member of the type II class of interferons (protein, UniProt P01579 24-161, looked up)
Interferon gamma: QDPYVKEAENLKKYFNAGHSDVADNGTLFLGILKNWKEESDRKIMQSQIVSFYFKLFKNFKDDQSIQKSVETIKEDMNVKFFNSNKKKRDDFEKLTNYSVTDLNVQRKAIHELIQVMAELSPAAKTGKRKRSQMLFRG
In the case of B1, the “STAT1 signaling (phosphorylation of STAT1, IRF1 transcription, STAT1 upregulation)” value in [1] (PC9-erlotinib model system (FIG. 5B)) is on record as “activates STAT1 signaling”. In addition, in test [10] (PC9/erlotinib and other models of tolerance (FIGS. 1B, 4A, 4B)), the “drug tolerance at relatively low doses” value is recorded as “increase tolerance”. Moreover, the “drug tolerance at relatively high doses” value in [10] (PC9/erlotinib, six-day treatment (FIG. 1B)) is given as “decreases drug tolerance”. Moreover, in test [12], the “reactivation of major EGFR bypass signaling” value is “did not observe the reactivation”.
